The values that follow come from PubChem BioAssay (NCI).

Several values for one entry are separate records, joined by “and”; a condition that tells them apart may be missing. Equal values may be shown once.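 Briefly, cells in 96-well plates were exposed to five compound concentrations for 48 h, and endpoints were estimated by linear interpolation. The concentration for 50% growth inhibition is given as GI50. TGI denotes the concentration required for complete inhibition of growth.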 A value given as a limit tells only on which side of the number the result lay.

Test systems include HL-60(TB) leukemia; K-562 leukemia; MDA-MB-231 breast; BT-549 breast; SF-539 CNS; UACC-257 melanoma; SR leukemia; UACC-62 melanoma; IGROV1 ovarian; SF-295 CNS.
Assay in all cases: growth of human tumour cells (NCI), 48 h

In the case of `Nc1nc(F)nc2c1ncn2C1OC(COP(=O)(O)O)C(O)C1O` (stereo not drawn), the TGI worked out at 71.9 µM in the assay on HL-60(TB) leukemia; 1070 µM with K-562 leukemia; 772 µM with MDA-MB-231 breast; 302 µM in the assay on BT-549 breast; 859 µM in the assay with SF-539 CNS; 813 µM with UACC-257 melanoma. Besides, the TGI is more than 621 µM in the assay on SR leukemia, 247 µM in the assay with UACC-62 melanoma, 952 µM with IGROV1 ovarian and 917 µM in the assay on SF-295 CNS.
As for `O=C1C=CC(=O)N1c1ccc2c(c1)Cc1cc(NC(=O)C(F)(F)F)ccc1-2`, the TGI with HL-60(TB) leukemia amounted to 38.1 µM; with K-562 leukemia, 59.6 µM; in the assay on MDA-MB-231 breast, 32.3 µM; in the assay on BT-549 breast it was 31.6 µM; in the assay on SF-539 CNS, 32.8 µM; in the assay with UACC-257 melanoma, 35.8 µM. Also, the TGI in the assay with SR leukemia is 6.44 µM; in the assay with UACC-62 melanoma, 30.7 µM; with IGROV1 ovarian, 32.3 µM; with SF-295 CNS, more than 100 µM.
With `CC1=Cc2cc3[n-]c(cc4nc(cc5[n-]c(cc1n2)c(C)c5CCC(=O)O)C(CCC(=O)O)=C4C)cc3C.[Cu+2]`, the GI50 in the assay with HL-60(TB) leukemia is > 1 µM and 22.2 µM; with K-562 leukemia, > 1 µM and 13.6 µM; with MDA-MB-231 breast, 22.6 µM; with BT-549 breast it was 14.5 µM; in the assay with SF-539 CNS, < 1 µM and 3.52 µM; in the assay on UACC-257 melanoma, > 1 µM and 40.8 µM. The GI50 with SR leukemia was > 1 µM and 45.1 µM; in the assay with UACC-62 melanoma, > 1 µM and 6.04 µM; in the assay on IGROV1 ovarian, > 1 µM and 12.5 µM; with SF-295 CNS it was 51.3 µM. Moreover, the TGI was > 1 µM and 51.2 µM with HL-60(TB) leukemia; more than 60.6 µM with K-562 leukemia; 50.3 µM in the assay on MDA-MB-231 breast; 27.8 µM in the assay with BT-549 breast; > 1 µM and 11.6 µM in the assay on SF-539 CNS; more than 85.4 µM in the assay on UACC-257 melanoma. In addition, the TGI is more than 75.7 µM in the assay on SR leukemia; > 1 µM and 15.8 µM with UACC-62 melanoma; > 1 µM and 35.9 µM in the assay with IGROV1 ovarian; more than 96.9 µM with SF-295 CNS.
Consider `O=C1C(Br)=C(c2ccccc2)C(c2ccccc2)=C1c1ccccc1`, for which the TGI came to 2.31 µM in the assay on HL-60(TB) leukemia; 9.93 µM in the assay on K-562 leukemia; 6.05 µM in the assay on MDA-MB-231 breast; 10.9 µM with BT-549 breast; 8.07 µM in the assay on SF-539 CNS; 9.67 µM in the assay with UACC-257 melanoma. Also, the TGI in the assay on SR leukemia is 3.78 µM; in the assay on UACC-62 melanoma, 5.73 µM; in the assay on IGROV1 ovarian, 10.6 µM; with SF-295 CNS it was 23.5 µM.
Consider `COc1cc2c3c(n(CCCn4ccnc4)c(=O)c2cc1OC)-c1ccccc1C3=O`, for which the GI50 in the assay on HL-60(TB) leukemia was less than 0.01 µM; with K-562 leukemia, less than 0.0155 µM; in the assay on MDA-MB-231 breast, 0.254 µM; in the assay on BT-549 breast, 0.0623 µM; in the assay with SF-539 CNS, less than 0.0373 µM; with SR leukemia, 0.0252 µM. The GI50 in the assay with UACC-62 melanoma was less than 0.0133 µM; in the assay on IGROV1 ovarian, less than 0.01 µM; in the assay with SF-295 CNS it was less than 0.01 µM. The TGI in the assay on HL-60(TB) leukemia was found to be 0.102 µM; with MDA-MB-231 breast it was 5.19 µM; in the assay with BT-549 breast, 30.7 µM; with SF-539 CNS, 0.441 µM; in the assay on UACC-257 melanoma, 0.199 µM; in the assay with SR leukemia it was 0.0583 µM. Besides, the TGI in the assay with UACC-62 melanoma came out at 0.0906 µM; in the assay on IGROV1 ovarian, 0.35 µM; in the assay on SF-295 CNS, 0.218 µM.
Consider `COc1ccc(C(=O)c2ccc(OC)cc2OC)cc1`, for which the GI50 with HL-60(TB) leukemia was 2.94 µM; with K-562 leukemia, 0.935 µM; in the assay on MDA-MB-231 breast it was 6.6 µM; with BT-549 breast, 4.06 µM; with SF-539 CNS, 2.81 µM; with UACC-257 melanoma it was 5 µM. The GI50 is 0.891 µM in the assay on SR leukemia, 5.67 µM with UACC-62 melanoma, 2.61 µM in the assay on IGROV1 ovarian and 2.33 µM with SF-295 CNS. Further, the TGI was more than 100 µM with HL-60(TB) leukemia; more than 100 µM in the assay with K-562 leukemia; 90.2 µM with MDA-MB-231 breast; more than 100 µM with BT-549 breast; 22.4 µM in the assay with SF-539 CNS; more than 100 µM with UACC-257 melanoma. Moreover, the TGI in the assay with SR leukemia was more than 100 µM; in the assay on UACC-62 melanoma, more than 100 µM; in the assay on IGROV1 ovarian it was 40.9 µM; in the assay with SF-295 CNS, 9.4 µM.
On to `N#Cc1c(SCc2ccccc2)nc2[nH]c(=S)[nH]c(=S)c2c1-c1ccco1`, for which the GI50 in the assay with HL-60(TB) leukemia was 40.6 µM; in the assay with K-562 leukemia, 24.3 µM; in the assay on MDA-MB-231 breast, 39.9 µM; in the assay on BT-549 breast, 21 µM; in the assay with SF-539 CNS, 31.7 µM; in the assay on UACC-257 melanoma, 66.5 µM. The GI50 with SR leukemia was 19.1 µM; in the assay with UACC-62 melanoma, 21.6 µM; in the assay on IGROV1 ovarian, more than 100 µM; in the assay with SF-295 CNS, 43.5 µM. Moreover, the TGI in the assay on HL-60(TB) leukemia was more than 100 µM; in the assay on K-562 leukemia, more than 100 µM; in the assay on MDA-MB-231 breast, 71.3 µM; in the assay on BT-549 breast it was more than 100 µM; in the assay with SF-539 CNS it was more than 100 µM; in the assay with UACC-257 melanoma, more than 100 µM. In addition, the TGI in the assay with SR leukemia was more than 100 µM; in the assay with UACC-62 melanoma, 46.6 µM; in the assay on IGROV1 ovarian, more than 100 µM; with SF-295 CNS, more than 100 µM.
Take `O=[N+]([O-])c1ccccc1/C=C/C=C1c2ccccc2-c2ccccc21`: the GI50 in the assay on HL-60(TB) leukemia, with K-562 leukemia, in the assay on MDA-MB-231 breast, in the assay on BT-549 breast, with SF-539 CNS and with UACC-257 melanoma was more than 100 µM each time. Further, the GI50 in the assay on SR leukemia, in the assay with UACC-62 melanoma, with IGROV1 ovarian and with SF-295 CNS was more than 100 µM in each case. In addition, the TGI with HL-60(TB) leukemia, in the assay with K-562 leukemia, in the assay on MDA-MB-231 breast, in the assay on BT-549 breast, in the assay with SF-539 CNS and in the assay on UACC-257 melanoma was more than 100 µM in each case. Also, the TGI in the assay on SR leukemia, in the assay with UACC-62 melanoma, in the assay on IGROV1 ovarian and in the assay with SF-295 CNS was more than 100 µM each time.
